Test results as given in US10517862B2, “Fused heterocyclic compound derivative and application thereof” (NHWA PHARMA. CORPORATION, priority 2015, dated 2019).

Key:
D2 receptor = D2 receptor binding assay (3H-Spiperone, rat striatum membrane); settings: for affinity with D2 (in words): summary of in vitro assay; for D2 Inhibition rate (%): test compound final concentration 10^−5 M, 3H-Spiperone, rat striatum membrane
Method: Preparation of D2 Membrane
Rats were decapitated on ice. […] The weight of the homogenized tubes were adjusted using a balance, and centrifugation was conducted. […] Centrifugation was conducted.
(§1) Materials for the Receptor Binding Assay

5HT1A receptor = target: T1, 5HT1A receptor (Rattus norvegicus, UniProt P19327); assay: 5HT1A receptor binding assay (3H-8-OH-DPAT, rat striatum membrane); settings: for affinity with 5HT1A (in words): summary of in vitro assay; for inhibition at 10 µM: test compound final concentration 10^−5 M, 3H-8-OH-DPAT, rat striatum membrane, read-out: 5HT1A Inhibition rate (%)
T1 construct: Rats were decapitated on ice; from tissue; host or cells: rat brain striatum
T1 sequence (P19327 1-422): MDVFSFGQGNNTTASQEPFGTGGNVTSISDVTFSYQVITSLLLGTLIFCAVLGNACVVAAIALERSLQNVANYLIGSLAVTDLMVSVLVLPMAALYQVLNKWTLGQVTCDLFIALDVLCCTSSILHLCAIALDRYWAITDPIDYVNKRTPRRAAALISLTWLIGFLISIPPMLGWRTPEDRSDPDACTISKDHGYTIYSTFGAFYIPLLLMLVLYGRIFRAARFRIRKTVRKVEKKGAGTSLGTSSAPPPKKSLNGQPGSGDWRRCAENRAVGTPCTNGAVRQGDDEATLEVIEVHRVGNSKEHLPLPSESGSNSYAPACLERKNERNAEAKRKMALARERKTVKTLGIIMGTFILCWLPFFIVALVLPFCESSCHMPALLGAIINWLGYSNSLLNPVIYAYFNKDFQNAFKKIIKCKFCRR
Method: Preparation of 5HT1A Membrane
Rats were decapitated on ice. […] Incubation at 37° C. was conducted for 10 min. […] Centrifugation was conducted at 12000 rpm, 4° C. for 20 min. […] Centrifugation was conducted and repeated 3 times.
as §1

D3 receptor = target: T2, D3 receptor (Homo sapiens, UniProt P35462); assay: D3 receptor assay ([3H]-Spiperone, HEK-293 cells); format: binding; settings: for affinity with D3 (in words): summary of in vitro assay; for inhibition at 10 µM: test compound final concentration 10 μmol/L, [3H]-Spiperone, HEK-293 cells, read-out: D3 Inhibition rate (%)
T2 construct: expressed in transfected cells; host or cells: HEK-293
T2 sequence (P35462 whole entry): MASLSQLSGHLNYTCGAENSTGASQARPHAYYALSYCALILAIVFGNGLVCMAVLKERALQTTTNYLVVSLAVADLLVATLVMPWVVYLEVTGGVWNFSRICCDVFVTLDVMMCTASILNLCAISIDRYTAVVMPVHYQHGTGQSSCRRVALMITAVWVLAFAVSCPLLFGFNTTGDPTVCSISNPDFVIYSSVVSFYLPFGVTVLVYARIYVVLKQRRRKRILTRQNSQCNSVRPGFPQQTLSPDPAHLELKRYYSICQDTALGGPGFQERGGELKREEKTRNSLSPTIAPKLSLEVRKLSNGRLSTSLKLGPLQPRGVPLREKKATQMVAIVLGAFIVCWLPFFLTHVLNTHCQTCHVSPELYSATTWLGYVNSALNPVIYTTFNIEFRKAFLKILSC
Method: Then the cells were centrifuged at 1000 rpm for 5 min, the supernatant was discarded, and the cell pellets was collected and stored in a −20° C. fridge for reservation. It was re-suspended with Tris-Cl (pH 7.4) when the assay was performed.
Tris was divided into aliquots by Genetimes Technology Inc.
Competitive binding test for receptors: 20 μl of each of the test compounds and 20 μl of the radioactive ligand together with 160 μl of the receptor proteins were added into the reaction tubes, and the final concentrations of the test compound and the positive drug were all 10 μmol/L. After 50 min of incubation in 30° C. water bath, the tubes were immediately moved to ice bath to terminate the reactions. GF/C glass fiber filter papers were used for rapid sucking filtration on a Millipore cell sample collector, 3 ml of elution buffer (50 mM Tris-HCl, PH 7.4) was applied for 3 times, and microwave was applied for 4-5 min for drying. The filter paper was moved into 0.5 ml centrifuge tube, and 500 μl of liposoluble scintillation cocktail was added. The tubes were allowed to stand still for over 30 min in dark, and the intensities of radioactivity were measured by a counter.

5HT2C receptor = target: T3, 5HT2C receptor (Rattus norvegicus, UniProt P08909); assay: 5HT2C receptor binding assay ([3H]-mesulergine, rat striatum membrane); settings: for affinity with 5HT2C (in words): summary of in vitro assay; for inhibition at 10 µM: test compound final concentration 10^−5 M, [3H]-mesulergine, rat striatum membrane, read-out: 5HT2C Inhibition rate (%)
T3 construct: from tissue; host or cells: rat brain striatum
T3 sequence (P08909 33-460): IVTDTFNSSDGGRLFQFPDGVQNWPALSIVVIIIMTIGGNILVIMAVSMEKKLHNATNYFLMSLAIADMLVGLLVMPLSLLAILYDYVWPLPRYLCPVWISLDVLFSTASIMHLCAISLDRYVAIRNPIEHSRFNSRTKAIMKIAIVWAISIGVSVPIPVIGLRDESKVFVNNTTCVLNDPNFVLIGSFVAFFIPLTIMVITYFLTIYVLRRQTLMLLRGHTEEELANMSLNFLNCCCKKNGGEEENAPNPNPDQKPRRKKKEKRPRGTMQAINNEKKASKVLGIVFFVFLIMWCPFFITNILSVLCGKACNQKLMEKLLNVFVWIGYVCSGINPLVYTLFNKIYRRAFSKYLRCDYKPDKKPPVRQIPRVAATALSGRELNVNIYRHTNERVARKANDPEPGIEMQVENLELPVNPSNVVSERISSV
Method: Preparation of 5HT2C Membrane
Rats were decapitated on ice. […] Centrifugation was conducted.
as §1

[1] = system: α1 norepinephrine receptor; assay: α1 norepinephrine receptor binding assay (3H-prazosin, rat cortex membrane); settings: for affinity with α1 (in words): summary of in vitro assay; for α1 Inhibition rate (%): test compound final concentration 10^−5 M, 3H-prazosin, rat cortex membrane
Description: Preparation of Receptor Membrane of Norepinephrine
α1 Norepinephrine Receptor Binding Assay

5HT2A receptor = 5HT2A receptor (Rattus norvegicus, UniProt P14842); assay: 5HT2A receptor binding assay ([3H]-Ketanserin, rat striatum membrane); settings: for inhibition at 10 µM: read-out: 5HT2A Inhibition rate (%); for affinity with 5HT2A (in words): summary of in vitro assay
5HT2A receptor, sequence (P14842 whole entry): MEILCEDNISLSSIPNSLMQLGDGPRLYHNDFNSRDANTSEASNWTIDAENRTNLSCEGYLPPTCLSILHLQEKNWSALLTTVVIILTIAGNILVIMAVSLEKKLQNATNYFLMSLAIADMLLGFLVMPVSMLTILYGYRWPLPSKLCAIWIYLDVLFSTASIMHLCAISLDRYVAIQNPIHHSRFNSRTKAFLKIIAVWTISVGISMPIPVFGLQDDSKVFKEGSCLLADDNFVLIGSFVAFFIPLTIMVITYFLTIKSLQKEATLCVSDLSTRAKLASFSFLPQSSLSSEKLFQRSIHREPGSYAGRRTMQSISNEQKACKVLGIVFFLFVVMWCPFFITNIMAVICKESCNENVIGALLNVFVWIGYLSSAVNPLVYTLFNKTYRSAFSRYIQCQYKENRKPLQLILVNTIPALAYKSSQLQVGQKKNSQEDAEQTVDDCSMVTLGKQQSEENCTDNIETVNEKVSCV

Histamine H1 receptor = Histamine H1 receptor (Rattus norvegicus, UniProt P31390); assay: Histamine H1 receptor binding assay (3H-pyrilamine, rat cerebellum membrane); settings: for inhibition at 10 µM: read-out: H1 Inhibition rate (%); for affinity with H1 (in words): summary of in vitro assay
Histamine H1 receptor, sequence (P31390 whole entry): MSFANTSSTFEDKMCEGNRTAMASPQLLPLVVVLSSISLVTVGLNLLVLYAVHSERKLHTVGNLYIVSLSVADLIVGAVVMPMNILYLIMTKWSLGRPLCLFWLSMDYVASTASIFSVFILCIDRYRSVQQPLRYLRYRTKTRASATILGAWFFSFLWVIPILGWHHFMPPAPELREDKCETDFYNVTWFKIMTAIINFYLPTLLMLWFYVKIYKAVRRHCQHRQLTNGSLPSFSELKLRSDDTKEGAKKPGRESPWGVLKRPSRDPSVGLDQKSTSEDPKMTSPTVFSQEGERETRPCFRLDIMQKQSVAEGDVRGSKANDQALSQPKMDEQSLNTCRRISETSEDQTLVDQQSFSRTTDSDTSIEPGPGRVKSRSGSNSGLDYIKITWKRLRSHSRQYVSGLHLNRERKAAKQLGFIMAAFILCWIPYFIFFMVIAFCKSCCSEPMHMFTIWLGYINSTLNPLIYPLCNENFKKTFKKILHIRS
Method: The supernatant was discarded to give pellets, and homogenate F was added again to the pellets for washing. Centrifugation was conducted and repeated 3 times.
(2) 100 μL of membrane preparation was added into each reaction tube.

| SMILES | affinity with D2 (in words) (D2 receptor) | D2 Inhibition rate (%) (D2 receptor) | affinity with 5HT1A (in words) (5HT1A receptor) | inhibition at 10 µM (5HT1A receptor) [%] | affinity with D3 (in words) (D3 receptor) | inhibition at 10 µM (D3 receptor) [%] | affinity with 5HT2C (in words) (5HT2C receptor) | inhibition at 10 µM (5HT2C receptor) [%] | affinity with α1 (in words) [1] | α1 Inhibition rate (%) [1] [%] | inhibition at 10 µM (5HT2A receptor) [%] | affinity with 5HT2A (in words) (5HT2A receptor) | inhibition at 10 µM (Histamine H1 receptor) [%] | affinity with H1 (in words) (Histamine H1 receptor) |
| --- | --- | --- | --- | --- | --- | --- | --- | --- | --- | --- | --- | --- | --- | --- |
| O=C1CCc2cc(CCCCN3CCC(c4noc5cc(F)ccc45)CC3)cc3c2N1CC3 [Compound 17] | high affinities | 99.17 | high affinities | 99.1 | high affinities | 96.2 | low affinities | 51.1 | low affinities | 46.62 | 99.4 | high affinities | 35.4 | low affinities |
| O=C(CN1CCC(c2noc3cc(F)ccc23)CC1)c1cc2c3c(c1)CCN3C(=O)CC2 [Compound 11] | – | 55.89 | – | 58.6 | – | 83.5 | – | 84.6 | – | 52.42 | 74.9 | – | 84.9 | – |
| O=C(CCCN1CCC(c2noc3cc(F)ccc23)CC1)c1cc2c3c(c1F)CCN3C(=O)CC2 [Compound 21] | – | 92.01 | – | 93.3 | – | 90.1 | – | 67.9 | – | 46.78 | 91.1 | – | 54.3 | – |
| O=C1CCc2cc(C(O)CCN3CCC(c4noc5cc(F)ccc45)CC3)cc3c2N1CC3 (centres unmarked) [Compound 13] | high affinities | 96.83 | high affinities | 93.6 | high affinities | 94.4 | low affinities | 53.6 | low affinities | 53.75 | 96.9 | high affinities | 46.9 | low affinities |
| O=C(CCCN1CCC(c2noc3cc(F)ccc23)CC1)c1cc2c3c(c1F)CCC(=O)N3CC2 [Compound 22] | – | 93.12 | – | 91.2 | – | 91.2 | – | 76.3 | – | 53.46 | 90.2 | – | 45.2 | – |
| O=C(CCCCN1CCC(c2noc3cc(F)ccc23)CC1)c1cc2c3c(c1)CCN3C(=O)CC2 [Compound 18] | – | 88.10 | – | 84.3 | – | 98.1 | – | 54.3 | – | 56.48 | 87.8 | – | 37.8 | – |
| O=C1CCc2cc(CCCN3CCC(c4noc5cc(F)ccc45)CC3)cc3c2N1CC3 [Compound 14] | high affinities | 94.65 | high affinities | 87 | high affinities | 96.9 | low affinities | 57 | low affinities | 50.91 | 93.9 | high affinities | 43.9 | low affinities |
| O=C1CCc2cc(C(O)CCCN3CCC(c4noc5cc(F)ccc45)CC3)cc3c2N1CC3 (centres unmarked) [Compound 16] | high affinities | 98.34 | high affinities | 99.4 | high affinities | 98.3 | low affinities | 55.4 | low affinities | 51.19 | 98.8 | high affinities | 38.8 | low affinities |
| CC1CC(=O)N2CCCc3cc(CCCCN4CCC(c5noc6cc(F)ccc56)CC4)cc1c32 (centres unmarked) [Compound 10] | – | 85.88 | – | 82.9 | – | 80.2 | – | 55.9 | – | 46.48 | 83.5 | – | 43.9 | – |
| O=C1CCc2cc(C(O)CCN3CCC(c4noc5cc(F)ccc45)CC3)cc3c2N1CCC3 (centres unmarked) [Compound 3] | – | 97.67 | – | 91.6 | – | 93.9 | – | 61.6 | – | 51.42 | 92.5 | – | 42.5 | – |
| O=C1CCc2cc(CCCN3CCC(c4noc5cc(F)ccc45)CC3)cc3c2N1CCC3 [Compound 4] | – | 94.22 | – | 88 | – | 92.5 | – | 60 | – | 60.91 | 94 | – | 44 | – |
| O=C1CCc2cc(CCCCCN3CCC(c4noc5cc(F)ccc45)CC3)cc3c2N1CC3 [Compound 20] | – | 83.23 | – | 83 | – | 93.2 | – | 53 | – | 68.86 | 80.3 | – | 49.3 | – |
| O=C(CCCCN1CCC(c2noc3cc(F)ccc23)CC1)c1cc2c3c(c1)CCC(=O)N3CCC2 [Compound 8] | – | 90.17 | – | 89.5 | – | 72.4 | – | 59.5 | – | 41.19 | 93 | – | 45.5 | – |
| O=C1CCc2cc(C(O)CCCN3CCC(c4noc5cc(F)ccc45)CC3)cc3c2N1CCC3 (centres unmarked) [Compound 6] | high affinities | 98.48 | high affinities | 99.6 | high affinities | 98.5 | low affinities | 61.6 | low affinities | 60.91 | 99.1 | high affinities | 49.1 | low affinities |
| O=C1CCc2cc(C(O)CCCCN3CCC(c4noc5cc(F)ccc45)CC3)cc3c2N1CC3 (centres unmarked) [Compound 19] | – | 81.45 | – | 87.1 | – | 91.5 | – | 57.1 | – | 52.47 | 81.1 | – | 41.1 | – |
